Structures can show the parent of a compound that is named as a salt.
Columns and labels:
[1] = molecular target: T1, PD-1/PD-L1 complex (hPD-L1 and hPD-1) (Homo sapiens, UniProt Q9NZQ7); test: Homogeneous time-resolved fluorescence (HTRF) assay, Cis-Bio kit; format: binding
T1 construct: purchased Cis-Bio

murine PD-L1 = molecular target: T2, murine PD-L1 (Mus musculus, UniProt Q9EP73); test: MicroScale Thermophoresis (MST) binding assay, murine PD-L1; conditions: mPD-L1
T2 construct: mPD-L1 residues, 19–134; made in house; host or cells: Escherichia coli BL21 (DE3)

[2] = molecular target: T3, hPD-1/hPD-L1 immune checkpoint (hPD-L1 aAPCs and Jurkat hPD-1 effector cells) (Homo sapiens, UniProt Q9NZQ7); test: hPD-1/hPD-L1 immune checkpoint blockade cell-based assay (Promega Blockade Bioassay)
T3 construct: host or cells: CHO K-1 (hPD-L1 aAPCs) and Jurkat T cells (hPD-1 effector cells)

primary human T cells = test: Flow cytometry of activation markers on primary T cells (PBMCs on hPD-L1 aAPCs); format: cell-based; conditions: 48 h
Description: The biological activity of the compound 2k was further verified on the primary T cells. For this, peripheral blood mononuclear cells (PBMCs) isolated from the blood of healthy donors were contacted with hPD-L1 aAPCs to provide TCR-mediated activation of T cells and the engagement of PD-1/PD-L1 immune checkpoint. The cells were then analyzed with flow cytometry following the gating for CD4^+ and CD8^+ T cells. The blockade of the PD-1/PD-L1 immune checkpoint was expected to increase the activation of T cells. In the experiment, atezolizumab and compound 2k were used. […] Because the prolonged activation of T cells leads to the increase of the expression of immune checkpoint molecules,[30] we have monitored the expression of PD-1 protein itself as an indicator of the late T cell activation and exhaustion. […] This confirms the bioactivity of the compound 2k in the context of primary T cells.
Blood samples from healthy donors were purchased from the Regional Center of Blood Donation and Blood Therapy in Krakow. PBMCs were isolated by a density gradient centrifugation using Pancoll human separating solutions (PAN-Biotech) and then resuspended in RPMI 1640 medium (Biowest) containing 10% FBS (Biowest).
PBMCs were added to the preseeded aAPCs at the density of 400 000 cells/well and incubated in the presence of compound 2k, DMSO, and with or without atezolizumab (5 μg/mL) as an anti-PD-L1 monoclonal antibody. After 48 h, cells were detached using TrypLe Select Enzyme (Thermo Fisher Scientific), collected into 5 mL round-bottom tubes, and washed with flow cytometry staining buffer (Thermo Fisher Scientific). For flow cytometry analysis, cells were stained using monoclonal antibodies: anti-CD69-APC, anti-CD4-FITC, anti-CD8-BV510, and anti-PD1-PECy7 (Becton Dickinson, BD). Following 20 min of incubation at room temperature, cells were washed, resuspended in PBS, and analyzed using a FACSCanto II flow cytometer (BD) and FACSDiva software (BD). The data analysis was carried out with FACSuite software (BD).

T1 sequence (Q9NZQ7 19-238 limits assumed, one chain of several): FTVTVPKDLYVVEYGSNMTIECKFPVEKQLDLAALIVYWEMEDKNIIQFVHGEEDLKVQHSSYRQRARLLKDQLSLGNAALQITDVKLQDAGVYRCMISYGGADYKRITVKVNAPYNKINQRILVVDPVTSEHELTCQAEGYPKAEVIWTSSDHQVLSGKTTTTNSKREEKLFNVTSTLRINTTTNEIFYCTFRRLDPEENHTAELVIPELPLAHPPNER
T3 sequence (Q9NZQ7 19-290): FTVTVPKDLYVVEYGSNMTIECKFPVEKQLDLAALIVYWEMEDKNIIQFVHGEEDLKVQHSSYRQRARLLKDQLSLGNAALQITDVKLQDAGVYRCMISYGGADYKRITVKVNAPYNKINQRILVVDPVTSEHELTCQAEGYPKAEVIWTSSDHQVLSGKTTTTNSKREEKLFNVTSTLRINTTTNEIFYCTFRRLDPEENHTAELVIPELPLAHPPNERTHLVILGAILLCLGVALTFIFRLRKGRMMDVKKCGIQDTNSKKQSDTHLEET
T2 sequence (Q9EP73 19-134): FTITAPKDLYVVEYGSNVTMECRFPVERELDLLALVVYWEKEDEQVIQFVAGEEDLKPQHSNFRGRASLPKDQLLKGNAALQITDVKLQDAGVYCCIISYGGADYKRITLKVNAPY

OCc1cccc(-c2ccccc2)c1-c1ccccc1 [1b, [1,1′:2′,1″-terphenyl]-3′-ylmethanol]
IC50 [1]: > 100 µM

O=C(NCCCN1CCOCC1)c1ccc(OCc2cccc(-c3ccccc3)c2Br)c(Br)c1 [2f, 4-(3-(3-Bromo-4-((2-bromo-[1,1′-biphenyl]-3-yl)methoxy)benzamido)propyl)morpholin-4-ium Hydrochloride]
IC50 [1]: 13.2 ± 0.15 µM

O=C(O)[C@@H]1CCCCN1Cc1ccc(OCc2cccc(-c3ccccc3)c2Br)cc1 [2h, (S)-1-(4-((2-Bromo-[1,1′-biphenyl]-3-yl)methoxy)benzyl)piperidine-2-carboxylic Acid]
IC50 [1]: 0.522 ± 0.0005 µM

Cc1cc(CN2CCCC[C@H]2C(=O)O)ccc1OCc1cccc(-c2ccccc2)c1Br [2i, (S)-1-(4-((2-Bromo-[1,1′-biphenyl]-3-yl)methoxy)-3-methylbenzyl)piperidine-2-carboxylic Acid]
MST KD (murine PD-L1): no activity

COc1cc(CN2CCCC[C@H]2C(=O)O)ccc1OCc1cccc(-c2ccccc2)c1Br [2j, (S)-1-(4-((2-Bromo-[1,1′-biphenyl]-3-yl)methoxy)-3-methoxybenzyl)piperidine-2-carboxylic Acid]
EC50 ([2]; cell based assay, Table S1): > 500 µM | IC50 [1]: 0.204 ± 0.0064 µM

O=C(O)[C@@H]1C[C@H](O)CN1Cc1ccc(OCc2cccc(-c3ccccc3)c2-c2ccccc2)c(Br)c1 [4f, (2S,4S)-1-(4-([1,1′:2′,1″-Terphenyl]-3′-ylmethoxy)-3-bromobenzyl)-4-hydroxypyrrolidine-2-carboxylic Acid]
IC50 [1]: 49.1 ± 0.15 µM

N#Cc1ccc(-c2cccc(COc3ccc(C=O)cc3Br)c2Br)cc1 [4g, 2′-Bromo-3′-((2-bromo-4-formylphenoxy)methyl)-[1,1′-biphenyl]-4-carbonitrile]
IC50 [1]: 29.4 ± 0.45 µM

Cc1c(COc2cc(OCc3cccc(C#N)c3)c(CN3C[C@H](O)C[C@@H]3C(=O)O)cc2Cl)cccc1-c1ccc2c(c1)OCCO2 [BMS-1166, reference compound]
MST KD (murine PD-L1): no activity

Durvalumab: a clinically relevant PD-L1-blocking antibody; positive control anti-hPD-L1 monoclonal antibody [reference compound]
EC50 ([2]; reference antibody, Hill fit): 0.0002 ± 6e-05 µM

atezolizumab: an anti-PD-L1 therapeutic antibody [reference compound]
expression of PD-1 receptor on the surface of CD4+ and CD8+ T cells (primary human T cells): significant increase | expression of early T-cell activation marker CD69 (primary human T cells): Neither of the two molecules was able to increase

Reference: PMC7584369, “Di-bromo-Based Small-Molecule Inhibitors of the PD-1/PD-L1 Immune Checkpoint” (Journal of Medicinal Chemistry, 2020)
